In brackets after ≈: the same amount, converted by molar mass. Where two headings read alike, the source gives them in different places.
Experiments:
[1] = system: HIV-1 HXB2; test: MT-4 antiviral cytopathic effect assay, HXB2 wild-type virus; assay type: cell-based
Experimental: (§1) The prepared compounds were tested for their anti-HIV-1 activity (Table 1). A viral cytopathic effect assay in MT-4 cells with HIV-1 IIIB virus was used to determine compound potency (EC50, 50% cell viability) in protecting virus induced cell killing. Compound cytotoxicity was assessed in MT-4 cells in the absence of virus (CC50, 50% cytotoxicity).
(§2) Compounds were tested in a high-throughput 384-well assay format for their ability to inhibit the virus replication-induced cytopathic effect in MT-4 cell cultures acutely infected with HIV-1 (IIIB strain), HXB2, HXB2-K103N, and HXB2-Y181C. Compounds were serially diluted (1:3) in DMSO on 384-well polypropylene plates and further diluted 200-fold into complete RPMI media (10% FBS, 1% P/S) using Biotek Micro Flow and an Agilent ECHO acoustic dispenser. Each plate contained up to eight test compounds, with negative (no drug control) and 5 μM AZT positive controls. MT-4 cells were further diluted in complete RPMI media and added to each plate using a Micro-Flo dispenser. After five days of incubation in a humidified and temperature-controlled incubator (37 °C), Cell Titer Glo (Promega) was added to the assay plates to quantify the amount of […]. EC50 and CC50 values were defined as the compound concentration that causes a 50% decrease in luminescence signal and were calculated using a sigmoidal dose-response model to generate curve fits.

[2] = system: HIV-1 (IIIB strain); test: MT-4 antiviral cytopathic effect assay, HIV-1 IIIB; assay type: cell-based; conditions: HIV-1 IIIB, WT
Experimental: as §1, §2

[3] = Solubility assessment, shake-flask method; assay type: physicochemical; conditions: compared to the other compounds, in words
[4] = Predicted clearance in human liver microsomes; assay type: in vitro ADME; conditions: pH 7.4, 1 μM compound, read-out: HLM CLint, pred (converted)
Experimental: Next, microsome stability was profiled in purified human liver microsomes (HLM).
Metabolic stability of compounds was assessed using HLM (Corning cat. 457117).[52] In this assay, 10 nL compounds at a concentration of 1 mM in 100% DMSO are dispensed into 384-well polypropylene plates using the Echo 550 acoustic liquid dispenser (Labcyte). Each plate contains 384 wells with a single test compound in each well.
A solution of HLM at 2 mg/mL in 100 mM K2HPO4/KH2PO4 pH 7.4 with 0.0225 mg/mL Alamethicin from Trichoderma viride (Sigma-Aldrich cat. A4665-10MG) was incubated on ice for 15 min. 5 μL of this solution was added to individual wells following 15 min incubation at room temperature; and supplemented with 5 μL NADPH Regenerating Solution of cofactors (Corning Gentest UGT Reaction Mix solutions A and B, cat. 451200 and 451220) containing 100 mM K2HPO4/KH2PO4 pH 7.4, 2.6 mM NADP^+, 6.6 mM glucose-6-phosphate, 6.6 mM MgCl2, 0.8 U/mL glucose-6-phosphate dehydrogenase, 0.1 mM sodium citrate, and 6.8 mM uridine diphosphate-glucuronic acid. The final concentration of analyte compounds at the beginning of the reactions was 1 μM. The reactions were incubated at 37 °C, and time points of 0, 5, 15, 30, 40, 50, 60, and 70 min were collected for further analysis. Background data were collected using reactions without analyte compounds.
Upon collection of the reaction time points, samples were quenched at the set time points with 30 μL of a solution of 72% acetonitrile, 8% methanol, 0.1% formic acid, 19.9% water, and labetalol as an internal standard (IS) at a concentration of 650 nM. Reaction plates were span in a centrifuge at a speed of 4000 rcf for 30 min and 4 °C, following a dilution of the 10 μL quenched reaction into 40 μL de-ionized water, yielding assay plates.
Samples were analyzed by a solid-phase extraction coupled with a quadrupole time-of-flight mass spectrometer, using an Agilent QToF 6530 RapidFire 360 system with C4 type A solid state cartridges. Analysis was performed in either positive or negative ionization modes. Mobile phases contained 0.1% formic acid in water for loading analytes onto solid state extraction cartridges, and 0.1% formic acid in acetonitrile for elution into the mass spectrometer in positive ionization mode, or 0.1% acetic acid in water for loading and 0.1% acetic acid in acetonitrile for extraction in negative ionization mode. Peak-area ratios of integrated counts for individual compounds to IS were plotted as a semi-logarithmic chart of log versus time. Initial, linear portion of decay was fitted to a linear regression equation to derive the half-time of a compound decay.
Pharmacological parameters for an analyte compound metabolism were calculated using the equations described in Table S2.
Table S2. Pharmacological parameters for an analyte compound metabolism were
calculated using the following equations:
Intrinsic Clearance (in Cl = ln 2
int, in vitro T1/2 ∗ Conc
Intrinsic Clearance Cl = Clint, in vitro ∗ Liver Mass ∗ Yield
Predicted Hepatic Cl = Clint ∗ QH
QH (Hepatic Blood Flow) = 1.3 L/hr/kg

[5] = system: HIV-1 HXB2 K103N variant; test: MT-4 antiviral cytopathic effect assay, HXB2-K103N; assay type: cell-based; conditions: for EC50: Human immunodeficiency virus 1, HXB2, read-out: EC50 K103N
Experimental: as §1, with “cytotoxicity). […] ETV contains bromo and amino substitutions on the DAPY core. […] Likely, with the smaller cyano arm I in 1, 3, and 5, the cores could be further elaborated to optimize the compound position in the pocket and to improve potency.” for “cytotoxicity).”
as §2

[6] = system: HIV-1 HXB2 Y181C variant; test: MT-4 antiviral cytopathic effect assay, HXB2-Y181C; assay type: cell-based; conditions: for EC50: Human immunodeficiency virus 1, HXB2, read-out: EC50 Y181C
Experimental: as §1, with “cytotoxicity). […] ETV contains bromo and amino substitutions on the DAPY core. […] Likely, with the smaller cyano arm I in 1, 3, and 5, the cores could be further elaborated to optimize the compound position in the pocket and to improve potency.” for “cytotoxicity).”
as §2

[7] = in vitro; assay type: cell-based; conditions: human
Experimental: as §1, with “cytotoxicity). […] ETV contains bromo and amino substitutions on the DAPY core. […] Likely, with the smaller cyano arm I in 1, 3, and 5, the cores could be further elaborated to optimize the compound position in the pocket and to improve potency.” for “cytotoxicity).”
as §2

[8] = Solubility assessment, shake-flask method; assay type: physicochemical; conditions: for solubility: shake-flask; for HCl sol / PBS sol / solubility thermodynamic: supplement CSV
Experimental: Compound solubility was measured at Analiza (Cleveland, OH) by the standard shake-flask method at pH 1.2 and 7.4 and quantitated by HPLC-UV.

[9] = MDCK permeability assay (A to B); assay type: in vitro ADME, Canine; conditions: dog, MDCK
Source text: (§3) Compounds were further tested in a Madin–Darby Canine Kidney (MDCK) assay to evaluate their potential for oral absorption. […] Additionally, there was no trend for better permeability when comparing arm I versus arm II when matched with the same core. The size of the B ring had the greatest influence on Papp with the trend being five-membered > six-membered > seven-membered rings (Table 1).
(§4) cMdr1-KO cells were maintained in Dulbecco’s modified Eagle’s medium (DMEM) with sodium pyruvate and GlutaMax, supplemented with 1% Pen/Strep and 10% fetal bovine serum in an incubator set at 37 °C, 90% humidity, and 5% CO2. MDCKII- cMdr1-KO cells were grown to confluence over 3 days on 96-well PET plates with 1 μm pore size, polyester membrane (Corning 3392). Experiments were run using HBSS donor buffer from Invitrogen containing an additional 10 mM HEPES, 15 mM glucose, and 0.1% BSA adjusted to pH 7.4. The receiver well had HBSS buffer supplemented with 1% BSA, 10 mM HEPES, 15 mM glucose, and the pH was adjusted to 7.4. TEER values were read to test membrane integrity at the beginning of the assay. The experiment was started by the addition of dosing solutions containing test compounds. Samples were taken from the donor compartment at 0/120 min and from the receiver compartment at 120 min. Each compound was tested in two separate replicate wells. All samples were immediately collected in a 72:8:20 MeCN/MeOH:H2O mix to precipitate protein and stabilize the test compounds. Cells were dosed on the apical side to determine forward (A to B) permeability. To test for non-specific binding and compound instability, the total amount of drug was quantified at the end of the experiment and compared to the material present in the original dosing solution as a percentage of recovery. Samples were analyzed by RF-QToF.

[10] = system: E138K; conditions: cell culture; cited from earlier work
[11] = system: MDCKII-cMdr1-KO cells; test: MDCK permeability assay (A to B); assay type: in vitro ADME, Canine; conditions: in words
Source text: as §3, §4

[12] = Human immunodeficiency virus 1, MT4, HIV-1 HXB2 wild-type, MT-4 cells, read-out: EC50 HXB2
[13] = Human immunodeficiency virus 1, IIIB, MT4, protects 50% of MT-4 cells against HIV-1-induced cell killing, read-out: EC50 MT4
[14] = protects 50% of MT-4 cells against HIV-1-induced cell killing, read-out: EC50 MT4
[15] = fold change: ratio of potency against HXB2 K103N and parental HXB2
[16] = supplement CSV, fold change vs HXB2
[17] = fold change: ratio of potency against HXB2 Y181C and parental HXB2
[18] = HCl, pH 1.2, read-out: solubility HCl
[19] = phosphate-buffered saline, pH 7.4, read-out: solubility PBS
[20] = apparent permeability coefficient, A to B, pH 7.4

| SMILES | EC50 [1, 12] [nM] | EC50 [2, 13] [nM] | EC50 [2, 14] [nM] | CLint scaled at 1.167 h, 1 µM [4] [mL/min/kg] | EC50 [5] [nM] | K103N (FC) [5, 15] | K103N (FC) [5, 16] | EC50 [6] [nM] | Y181C (FC) [6, 17] | Y181C (FC) [6, 16] | CC50 at 120 h [7] [nM] | solubility [8, 18] [µM] | solubility [8, 19] [µM] | HCl sol [8] [µM] | PBS sol [8] [µM] | Papp A→B at 120 min ([9]; supplement CSV) [×10⁻⁶ cm/s] | Papp A→B at 120 min [9, 20] [×10⁻⁶ cm/s] | resistance conferred by E138K [10] | permeability (Papp) in the MDCK assay [11] | other results |
| --- | --- | --- | --- | --- | --- | --- | --- | --- | --- | --- | --- | --- | --- | --- | --- | --- | --- | --- | --- | --- |
| Cc1cc(/C=C/C#N)cc(C)c1N1CC(=O)Nc2cnc(Nc3ccc(C#N)cc3)nc21 [Compound 4, 4-[(8-{4-[(1E)-2-Cyanoeth-1-en-1-yl]-2,6-dimethylphenyl}-6-oxo-5,6,7,8-tetrahydropteridin-2-yl)amino]benzonitrile] | 2.4 | 2.6 to 3 | 2.7 | 16.3 | 2.8 | 1.2 | 1.2 | 4.9 | 2.0 | 2.0 | 42400 | 6.5 (≈ 2.74 µg/mL) | 1.8 (≈ 0.759 µg/mL) | 6.5 | 1.8 | 4.2 | 4.2 | – | – | solubility at pH 2 [3]: markedly reduced |
| Cc1cc(/C=C/C#N)cc(C)c1N1CCC(=O)Nc2cnc(Nc3ccc(C#N)cc3)nc21 [Compound 6, 4-[(9-{4-[(1E)-2-Cyanoeth-1-en-1-yl]-2,6-dimethylphenyl}-6-oxo-5H,6H,7H,8H,9H-pyrimido[4,5-b][1,4]diazepin-2-yl)amino]benzonitrile] | 2.8 | 2.6 to 3 | 3 | 12 | 4.8 | 1.7 | 1.7 | 18.3 | 6.5 | 6.5 | 25800 | 63.3 (≈ 27.6 µg/mL) | 2.3 (≈ 1 µg/mL) | 63.3 | 2.3 | 3.1 | 3.1 | – | – | – |
| Cc1cc(C#N)cc(C)c1Oc1nc(Nc2ccc(C#N)cc2)nc(N)c1Br [ETV, etravirine, reference compound] | – | – | – | 4.17 | 2.3 | 0.9 | 0.9 | 11.1 | 4.8 | 4.8 | 7300 | < 1 | < 1 | <1 | <1 | 3.8 | 3.8 | 2–3 fold | moderate | EC50 ([1]; Human immunodeficiency virus 1, HXB2, MT4, read-out: EC50 HXB2): 2.5 nM; EC50 ([2]; Human immunodeficiency virus 1, MT4, read-out: EC50 MT4, protects 50% of MT-4 cells against HIV-1-induced cell killing): 2.4 nM |
| Cc1cc(/C=C/C#N)cc(C)c1Nc1ccnc(Nc2ccc(C#N)cc2)n1 [RPV, rilpivirine, reference compound] | – | – | – | 14.3 | 1.5 | 1.3 | 1.3 | 3.8 | 3.2 | 3.2 | 6500 | > 100 | < 1 | – | – | 4.6 | 4.6 | 2–3 fold | moderate | solubility thermodynamic ([8]; HCl, pH 1.2, read-out: HCl sol): > 100 µM; solubility thermodynamic ([8]; PBS, pH 7.4, aqueous buffer, read-out: PBS sol): < 1 µM |

From PMC10017027, “Design and Synthesis of Novel HIV-1 NNRTIs with Bicyclic Cores and with Improved Physicochemical Properties” (Journal of Medicinal Chemistry, 2023)
